Test results from patent US8415469B2, “Compounds and methods for kinase modulation, and indications therefor” (Plexxikon Inc., priority 2005, dated 2013).

Assays:
Format in all cases: biochemical
Flt1 = molecular target: T1, Flt1 (Homo sapiens, UniProt P17948); test: AlphaScreen kinase assay, Flt1; settings: read-out: IC50, activity toward kinase Flt1
T1 construct: P1826.pETN6 BI-PTP FLT1 M799-D1165-X WT; His6 (N); made in house; host or cells: E. coli (PTP1B co-expressed)
T1 sequence (P17948 with tags, fused parts or gaps): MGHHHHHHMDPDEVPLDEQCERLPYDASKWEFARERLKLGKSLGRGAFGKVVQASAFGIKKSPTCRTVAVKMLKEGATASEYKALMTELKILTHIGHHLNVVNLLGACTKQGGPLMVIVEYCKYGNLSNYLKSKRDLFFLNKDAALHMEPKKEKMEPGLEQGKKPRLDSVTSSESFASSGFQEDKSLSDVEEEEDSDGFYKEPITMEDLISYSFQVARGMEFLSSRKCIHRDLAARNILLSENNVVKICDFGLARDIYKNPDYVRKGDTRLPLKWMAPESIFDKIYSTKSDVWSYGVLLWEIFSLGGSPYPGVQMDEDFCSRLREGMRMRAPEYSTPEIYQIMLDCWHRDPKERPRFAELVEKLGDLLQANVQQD

Jak3 = molecular target: T2, Jak3 (Homo sapiens, UniProt P52333); test: AlphaScreen kinase assay, Jak3; settings: read-out: IC50, activity toward kinase Jak3
T2 sequence (P52333 1-1124): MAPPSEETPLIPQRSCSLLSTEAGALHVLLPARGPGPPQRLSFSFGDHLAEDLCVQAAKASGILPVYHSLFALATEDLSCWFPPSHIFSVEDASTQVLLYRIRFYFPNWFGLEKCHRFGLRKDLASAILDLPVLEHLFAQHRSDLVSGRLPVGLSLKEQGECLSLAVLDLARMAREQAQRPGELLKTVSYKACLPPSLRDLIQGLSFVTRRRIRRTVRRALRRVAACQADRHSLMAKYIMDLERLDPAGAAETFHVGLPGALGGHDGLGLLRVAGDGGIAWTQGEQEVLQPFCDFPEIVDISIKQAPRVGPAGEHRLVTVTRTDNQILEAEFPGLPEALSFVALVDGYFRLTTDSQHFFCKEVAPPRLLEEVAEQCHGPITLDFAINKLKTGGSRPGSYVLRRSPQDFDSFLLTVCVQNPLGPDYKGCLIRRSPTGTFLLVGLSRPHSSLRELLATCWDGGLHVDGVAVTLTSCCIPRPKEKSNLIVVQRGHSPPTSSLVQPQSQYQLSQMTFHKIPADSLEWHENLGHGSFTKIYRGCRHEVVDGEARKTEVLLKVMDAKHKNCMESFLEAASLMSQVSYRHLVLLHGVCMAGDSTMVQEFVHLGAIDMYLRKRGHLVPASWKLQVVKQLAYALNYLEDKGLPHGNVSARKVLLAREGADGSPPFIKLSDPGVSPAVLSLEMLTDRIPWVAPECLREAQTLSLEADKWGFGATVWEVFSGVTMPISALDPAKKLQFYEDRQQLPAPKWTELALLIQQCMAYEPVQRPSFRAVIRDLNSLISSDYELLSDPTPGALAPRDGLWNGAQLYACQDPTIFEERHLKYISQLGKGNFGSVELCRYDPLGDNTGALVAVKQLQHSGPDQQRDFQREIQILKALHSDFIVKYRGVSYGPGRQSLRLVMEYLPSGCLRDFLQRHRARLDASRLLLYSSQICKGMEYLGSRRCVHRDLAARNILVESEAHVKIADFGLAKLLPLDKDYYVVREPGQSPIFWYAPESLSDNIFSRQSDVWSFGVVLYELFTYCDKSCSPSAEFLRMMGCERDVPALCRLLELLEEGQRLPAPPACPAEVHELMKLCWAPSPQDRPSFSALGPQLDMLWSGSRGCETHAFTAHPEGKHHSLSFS
Procedure, shortened: (§1)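 AlphaScreen, biotin-peptide substrate; streptavidin donor/anti-phospho acceptor beads; decreased emission = inhibition. Cpds 20 mM DMSO stock, 1:3 x 8 conc.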

Abl = molecular target: T3, Abl (Homo sapiens, UniProt P00519); test: AlphaScreen kinase assay, Abl; settings: read-out: activity toward kinase Abl, IC50
T3 construct: P1121. pET-SPEC BI-PTP Abl G227-V515-X; His6 (N); made in house; host or cells: E. coli (PTP1B co-expressed)
T3 sequence (P00519 with tags, fused parts or gaps): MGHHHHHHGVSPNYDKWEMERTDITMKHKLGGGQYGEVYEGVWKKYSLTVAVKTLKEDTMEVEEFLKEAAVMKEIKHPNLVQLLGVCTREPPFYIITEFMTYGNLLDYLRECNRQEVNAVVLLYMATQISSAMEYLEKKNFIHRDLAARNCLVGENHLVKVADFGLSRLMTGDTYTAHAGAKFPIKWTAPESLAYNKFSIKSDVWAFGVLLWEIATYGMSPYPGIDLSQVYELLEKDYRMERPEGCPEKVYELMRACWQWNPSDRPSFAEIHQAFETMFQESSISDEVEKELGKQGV
Procedure, shortened: as §1

Jnk1 = molecular target: T4, Jnk1 (Homo sapiens, UniProt P45983); test: AlphaScreen kinase assay, Jnk1; settings: read-out: IC50, activity toward kinase Jnk1
T4 construct: purchased Upstate Biotechnology
T4 sequence (P45983 whole entry): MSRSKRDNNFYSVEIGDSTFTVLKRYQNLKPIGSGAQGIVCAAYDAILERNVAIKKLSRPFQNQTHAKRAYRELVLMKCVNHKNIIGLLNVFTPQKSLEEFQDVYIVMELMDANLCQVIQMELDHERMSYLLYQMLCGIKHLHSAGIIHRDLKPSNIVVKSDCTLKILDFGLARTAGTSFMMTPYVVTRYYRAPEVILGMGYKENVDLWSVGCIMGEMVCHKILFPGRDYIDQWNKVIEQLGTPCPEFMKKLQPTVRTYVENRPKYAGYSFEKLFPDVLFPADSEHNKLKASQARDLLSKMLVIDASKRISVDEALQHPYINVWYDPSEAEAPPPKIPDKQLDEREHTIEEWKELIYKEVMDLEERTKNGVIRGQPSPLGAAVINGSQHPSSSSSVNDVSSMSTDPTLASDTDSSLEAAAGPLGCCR
From the text: (§2) AlphaScreen assay was used to screen additional kinases. The assay is similarly dependent on the phosphorylation of a peptide substrate. In this assay, an antibody that recognizes phosphorylated substrate is bound to an acceptor bead. The peptide substrate is attached to biotin, which binds to a donor head that contains streptavidin. Thus phosphorylated substrate is bound by antibody and streptavidin, bringing the donor and acceptor heads into close proximity when kinase is not inhibited. The donor produces singlet oxygen which results in emission from the acceptor when they are in close proximity. Conversely, when kinase is inhibited, the donor and acceptor beads are not associated and the emission from the acceptor is reduced.
(§3) AlphaScreen assays were done using compounds dissolved in DMSO to a concentration of 20 mM. The compounds were diluted accordingly to the desired final concentrations in each sample well, using 1:3 serial dilution for a total of 8 concentration points. Plates were prepared such that each kinase reaction is 20 μl in 1× kinase buffer, 5% DMSO and 10 μM ATP. After incubation of the kinase reaction for 1 hour at room temperature, 5 μl of donor beads in stop buffer (50 mM EDTA in 1× kinase buffer) was added, the sample was mixed and incubated for 20 minutes at room temperature before adding 5 μl of acceptor beads in stop buffer. The samples were incubated for 60 minutes at room temperature and the signal per well was read on AlphaQuest reader.

Jnk3 = molecular target: T5, Jnk3 (Homo sapiens, UniProt P53779); test: AlphaScreen kinase assay, Jnk3; settings: read-out: IC50, activity toward kinase Jnk3
T5 construct: purchased Upstate Biotechnology
T5 sequence (P53779 whole entry): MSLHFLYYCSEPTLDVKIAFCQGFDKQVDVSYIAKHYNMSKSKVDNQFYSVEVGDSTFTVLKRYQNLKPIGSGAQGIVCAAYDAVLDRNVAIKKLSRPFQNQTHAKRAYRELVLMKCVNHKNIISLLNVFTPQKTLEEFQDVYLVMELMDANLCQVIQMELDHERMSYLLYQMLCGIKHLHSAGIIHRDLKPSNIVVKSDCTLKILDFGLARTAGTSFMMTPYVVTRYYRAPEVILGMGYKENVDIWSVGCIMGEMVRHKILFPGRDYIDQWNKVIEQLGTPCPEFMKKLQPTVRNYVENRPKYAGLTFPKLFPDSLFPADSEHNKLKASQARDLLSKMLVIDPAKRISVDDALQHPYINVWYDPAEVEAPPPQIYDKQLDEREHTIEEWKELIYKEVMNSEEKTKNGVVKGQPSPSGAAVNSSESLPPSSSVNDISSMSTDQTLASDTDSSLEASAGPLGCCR
From the text: as §2, §3

c-Raf-1 = molecular target: T6, c-Raf-1 (Homo sapiens, UniProt P04049); test: AlphaScreen kinase assay, c-Raf-1; settings: read-out: IC50, activity toward kinase c-Raf-1
T6 construct: purchased Upstate Biotechnology
T6 sequence (P04049 whole entry): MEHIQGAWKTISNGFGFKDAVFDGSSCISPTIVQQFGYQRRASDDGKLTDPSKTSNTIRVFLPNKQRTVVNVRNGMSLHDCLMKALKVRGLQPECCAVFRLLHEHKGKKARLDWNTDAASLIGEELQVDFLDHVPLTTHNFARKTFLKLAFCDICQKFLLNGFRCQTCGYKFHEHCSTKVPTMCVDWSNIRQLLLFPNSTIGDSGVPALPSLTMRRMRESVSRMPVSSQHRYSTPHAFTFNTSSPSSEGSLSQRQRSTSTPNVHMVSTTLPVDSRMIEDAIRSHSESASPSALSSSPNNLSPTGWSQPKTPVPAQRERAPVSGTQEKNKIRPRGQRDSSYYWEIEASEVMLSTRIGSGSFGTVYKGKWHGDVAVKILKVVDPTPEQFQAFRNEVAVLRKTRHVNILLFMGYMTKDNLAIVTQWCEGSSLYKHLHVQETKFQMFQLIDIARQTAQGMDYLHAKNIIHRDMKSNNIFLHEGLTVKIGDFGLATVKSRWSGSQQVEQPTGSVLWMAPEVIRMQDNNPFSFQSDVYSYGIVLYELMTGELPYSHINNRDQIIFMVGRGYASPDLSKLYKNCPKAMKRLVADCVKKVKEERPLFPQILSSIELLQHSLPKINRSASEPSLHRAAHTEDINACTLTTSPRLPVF

Met = molecular target: T7, Met (Homo sapiens, UniProt P08581); test: AlphaScreen kinase assay, Met; settings: read-out: IC50, activity toward kinase Met
T7 construct: P1818.pETN6 BI-PTP MET G1056-G1364-X WT; His6 (N); made in house; host or cells: E. coli (PTP1B co-expressed)
T7 sequence (P08581 with tags, fused parts or gaps): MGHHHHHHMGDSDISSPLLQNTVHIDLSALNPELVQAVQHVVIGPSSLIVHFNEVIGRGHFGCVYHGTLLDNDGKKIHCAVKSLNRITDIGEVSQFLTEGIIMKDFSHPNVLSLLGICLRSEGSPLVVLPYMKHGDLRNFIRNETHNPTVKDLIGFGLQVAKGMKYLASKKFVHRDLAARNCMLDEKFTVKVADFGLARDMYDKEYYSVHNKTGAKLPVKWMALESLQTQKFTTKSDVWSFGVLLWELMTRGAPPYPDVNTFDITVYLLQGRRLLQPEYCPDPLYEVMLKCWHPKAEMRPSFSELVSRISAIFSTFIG
Procedure, shortened: as §1

Measured: IC50

Nc1cccc(-c2cnc3[nH]cc(C(=O)c4cccc(O)c4)c3c2)c1 [Compound P-0003]
not listed: c-Raf-1 | Met
≤ 10 µM: all other assays above

Oc1ccc(F)c(Cc2c[nH]c3ncc(Br)cc23)c1F [Compound P-0122, 3-(5-Bromo-1H-pyrrolo[2,3-b]pyridin-3-ylmethyl)-2,4-difluoro-phenol]
≤ 10 µM: Jak3 | Jnk3 | c-Raf-1

Nc1cccc(-c2cnc3[nH]cc(C(=O)c4cccc(O)c4F)c3c2)c1 [Compound P-0004, [5-(3-amino-phenyl)-1H-pyrrolo[2,3-b]pyridin-3-yl]-(2-fluoro-3-hydroxy-phenyl)methanone]
not listed: Abl
≤ 10 µM: all other assays above

O=C(c1cccc(O)c1)c1c[nH]c2ncc(Br)cc12 [Compound P-0019]
≤ 10 µM: Flt1 | Jak3 | Abl

Oc1ccc(F)c(C(O)c2c[nH]c3ncc(-c4cccnc4)cc23)c1F (stereo not shown) [Compound P-0009, 2,4-difluoro-3-[hydroxy-(5-pyridin-3-yl-1H-pyrrolo[2,3-b]pyridin-3-yl)-methyl]-phenol]
not listed: Abl
≤ 10 µM: all other assays above

O=C(c1cccc(O)c1F)c1c[nH]c2ncc(-c3cccs3)cc12 [Compound P-0521, (2-fluoro-3-hydroxy-phenyl)-(5-thiophen-2-yl-1H-pyrrolo[2,3-b]pyridin-3-yl)-methanone]
not listed: Met
≤ 10 µM: all other assays above

O=C(c1ccc(O)cc1)c1c[nH]c2ncc(-c3cccs3)cc12 [Compound P-0024, (4-Hydroxy-phenyl)-(5-thiophen-2-yl-1H-pyrrolo[2,3-b]pyridin-3-yl)-methanone]
≤ 10 µM: Flt1 | Jak3 | Jnk3 | c-Raf-1

NC(=O)c1ccc(-c2ccnc3[nH]cc(C(=O)c4cc(F)ccc4F)c23)cc1 [Compound P-0013]
≤ 10 µM: Flt1 | Jak3

OC(c1c(F)ccc(F)c1F)c1c[nH]c2ncc(-c3cccnc3)cc12 (stereo not shown) [Compound P-0101]
≤ 10 µM: Flt1 | Jak3 | Met

CS(=O)(=O)c1cccc(-c2cnc3[nH]cc(C(O)c4c(F)ccc(F)c4F)c3c2)c1 (stereo not shown) [Compound P-0020]
≤ 10 µM: Flt1 | Jak3 | Met

O=C(c1ccccc1F)c1c[nH]c2nccc(-c3ccsc3)c12 [Compound P-0051]
≤ 10 µM: Jak3

NC(=O)c1ccc(-c2ccnc3[nH]cc(C(=O)c4ccccc4F)c23)cc1 [Compound P-0014]
≤ 10 µM: Jak3

O=C(c1cccc(O)c1)c1c[nH]c2nccc(-c3cc(F)cc(F)c3)c12 [Compound P-0039]
≤ 10 µM: Flt1 | Jak3

NC(=O)c1cccc(-c2ccnc3[nH]cc(C(=O)c4cc(F)ccc4F)c23)c1 [Compound P-0049]
≤ 10 µM: Jak3

NC(=O)c1cccc(-c2cnc3[nH]cc(C(=O)c4cccc(O)c4F)c3c2)c1 [Compound P-0034, 3-[3-(2-Fluoro-3-hydroxy-benzoyl)-1H-pyrrolo[2,3-b]pyridin-5-yl]benzamide]
not listed: Abl
≤ 10 µM: all other assays above
